Assay results from ChEMBL document CHEMBL1154248, “Matrix metalloproteinase-2 inhibitors from Clinopodium chinense var. parviflorum” (J Nat Prod, 2009).

The compounds below were run against 72 kDa type IV collagenase (Rattus norvegicus, UniProt P33436) (assay: Inhibition of gelatinolytic activity of MMP2 in rat lung homogenate after 40 mins by SDS-PAGE preincubated for 30 mins).
Chain of 72 kDa type IV collagenase (P33436 whole entry): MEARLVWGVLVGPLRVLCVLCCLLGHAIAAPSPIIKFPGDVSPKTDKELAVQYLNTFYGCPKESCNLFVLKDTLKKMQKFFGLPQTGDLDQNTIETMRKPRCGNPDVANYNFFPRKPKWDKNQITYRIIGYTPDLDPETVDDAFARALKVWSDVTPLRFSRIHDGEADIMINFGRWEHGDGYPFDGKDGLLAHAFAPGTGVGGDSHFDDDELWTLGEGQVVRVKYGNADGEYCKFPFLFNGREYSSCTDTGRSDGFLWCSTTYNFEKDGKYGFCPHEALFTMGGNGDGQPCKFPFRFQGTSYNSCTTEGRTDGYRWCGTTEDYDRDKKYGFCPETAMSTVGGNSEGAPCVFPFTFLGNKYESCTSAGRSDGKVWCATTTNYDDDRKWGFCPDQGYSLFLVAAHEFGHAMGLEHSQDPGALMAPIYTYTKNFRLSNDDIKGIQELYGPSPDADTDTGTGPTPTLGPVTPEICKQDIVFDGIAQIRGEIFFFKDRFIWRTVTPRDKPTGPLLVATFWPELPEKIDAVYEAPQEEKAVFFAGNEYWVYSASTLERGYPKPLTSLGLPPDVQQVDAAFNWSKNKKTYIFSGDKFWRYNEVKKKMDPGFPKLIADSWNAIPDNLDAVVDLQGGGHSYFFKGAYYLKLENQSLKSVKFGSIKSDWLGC

| SMILES | IC50 [µM] |
| --- | --- |
| COc1cc(C[C@@H](OC(=O)/C=C/c2ccc(O)c3c2[C@H](C(=O)O)[C@@H](c2ccc(O)c(OC)c2)O3)C(=O)O)ccc1O [CLINOPODIC ACID H] | > 100 |
| O=C(/C=C/c1ccc(O)cc1)O[C@H](Cc1ccc(O)c(O)c1)C(=O)O [CLINOPODIC ACID A] | > 100 |
| COc1cc(C[C@@H](OC(=O)/C=C/c2ccc3c(c2)O[C@@H](C(=O)O)[C@@H](c2ccc(O)c(O)c2)O3)C(=O)O)ccc1O [CLINOPODIC ACID F] | > 100 |
| O=C(/C=C/c1ccc2c(c1)O[C@@H](C(=O)O)[C@@H](c1ccc(O)c(O)c1)O2)O[C@H](Cc1ccc(O)c(O)c1)C(=O)O [CLINOPODIC ACID E] | > 100 |

Other lines, results leading:

| IC50 [µM] | SMILES |
| --- | --- |
| > 100 | COc1cc(C[C@@H](OC(=O)/C=C/c2ccc(O)c(O)c2)C(=O)O)ccc1O [CLINOPODIC ACID B] |
| 27.2 | O=C(/C=C/c1ccc(O)c(O)c1)O[C@H](Cc1ccc(O)c(O)c1)C(=O)O [ROSMARINIC ACID] |
| 3.26 | O=C(/C=C/c1ccc2c(c1)O[C@H](C(=O)O)[C@H](c1ccc(O)c(O)c1)O2)O[C@H](Cc1ccc(O)c(O)c1)C(=O)O [CLINOPODIC ACID C] |
| > 100 | COC(=O)[C@@H](Cc1ccc(O)c(O)c1)OC(=O)/C=C/c1ccc(O)c(O)c1 [METHYL ROSMARINATE] |
| 10.2 | O=C(/C=C/c1ccc(O)c2c1[C@H](C(=O)O)[C@@H](c1ccc(O)c(O)c1)O2)O[C@H](Cc1ccc(O)c(O)c1)C(=O)O [LITHOSPERMIC ACID] |
